Tests used:
ES cells = details: cited from earlier work
[1] = test system: cells not expressing the HSV-TK gene; details: cited from earlier work
VACVΔE3L::GyrB-PKRK296H = assay type: cell-based, vaccinia virus
VACVΔJ2R::GyrB-PKR = assay type: cell-based, vaccinia virus
VACVΔE3L = assay type: cell-based, vaccinia virus
VACVΔE3L::GyrB-PKR = assay type: cell-based, vaccinia virus

Row | Compound | totipotency of ES cells (ES cells) | nonspecific toxicity [1] | sensitivity of virus to coumermycin (VACVΔE3L::GyrB-PKRK296H) | sensitivity to coumermycin compared to untreated cells (VACVΔJ2R::GyrB-PKR) | sensitivity of virus to coumermycin (VACVΔE3L) | coumermycin concentration at which sensitivity of the virus was observed (VACVΔE3L::GyrB-PKR)
1 | Nc1nc(O)c2ncn(COC(CO)CO)c2n1 [GCV, ganciclovir] | reduce the totipotency | nonspecific toxicity |  |  |  | 
2 | Coumermycin A1 |  |  | resistant to all doses | at least 100,000 fold | resistant to all doses | greater than 5 ng/ml
